{"source": "BindingDB's records for doi:10.1016/S0960-894X(00)80383-2", "about": "(1992)", "assay": "Concentration required to inhibit the enzyme cathepsin", "note": "Where a name gives a salt, the structure may show the parent alone."}
{"smiles": "CCC[C@H](NC(=O)[C@H](Cc1ccc(OC)cc1)NC(=O)CC(C)C)C(=O)N[C@@H](CC1CCCCC1)C(=O)C(F)(F)CN", "note": "[(S)-2-[(S)-3-(4-Methoxy-phenyl)-2-(3-methyl-butyrylamino)-propionylamino]-pentanoic acid ((S)-4-amino-1-cyclohexylmethyl-3,3-difluoro-2-oxo-butyl)-amide; hydrochloride]", "values": [{"measurement": "Ki", "result": 4, "unit": "µM"}]}
